Laboratory results from patent publication US20230000842A1, “METHODS OF TREATING CARTILAGE DISORDERS THROUGH INHIBITION OF CLK AND DYRK” (SAMUMED, LLC, priority 2019, published 2023).

What was measured:
[1] = system: primary human mesenchymal stem cells (hMSCs); test: Chondrogenesis screening using primary human mesenchymal stem cells; assay type: cell-based; settings: Homo sapiens, Mesenchymal stem cells, hMSC chondrogenesis; for EC50: concentration required to induce 50% levels of chondrogenesis with TGF-β3 as positive control, read-out: Conc (nM) of 50% TGF-β3 activity; for Emax: maximum activity relative to TGF-β3 (10 ng/mL) positive control, read-out: Max. Activity as % TGF-β3 activity
Outline: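 Derived values are EC50 for 50% chondrogenesis, maximal activity and the dose giving it. These come from nodule area in passage 3–6 primary hMSCs, expressed as fold change over the mean of 3 same-plate DMSO wells, 2–3 replicates per concentration. TGF-β3 served as positive control.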

[2] = system: MMP-3 levels in supernatant of chondrocytes stimulated with IL1-β; test: Chondrocyte protection assay compound screening (MMP-3 LANCE Ultra); assay type: cell-based, human; settings: Homo sapiens, Chondrocyte, IL1-β 10 ng/mL overnight, 11-point curves from 3 μM to 0.05 nM; for Emax: read-out: Maximum % Inhibition
Outline: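 Primary human chondrocytes (passage 2–5) in differentiation medium were stimulated with 10 ng/mL IL1-β for an overnight incubation at 37 °C. MMP-3 in 1:7-diluted supernatant was read by TR-FRET immunoassay against a standard curve, normalised to IL1-β-stimulated wells; EC50 and maximum % inhibition came from nonlinear regression.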

CLK3 kinase = CLK3 kinase (Homo sapiens, UniProt P49761); test: CLK3 kinase activity assay (Z-lyte FRET); assay type: biochemical; settings: Z-lyte Ser/Thr 18 peptide, 156 μM ATP, 1 h at room temperature;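 further: kinase activity read as coumarin/fluorescein emission ratio by FRET, unphosphorylated peptide as 0% and phosphorylated peptide as 100% control, values from non-linear regression of dose-response curves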
Sequence of CLK3 kinase (P49761 whole entry): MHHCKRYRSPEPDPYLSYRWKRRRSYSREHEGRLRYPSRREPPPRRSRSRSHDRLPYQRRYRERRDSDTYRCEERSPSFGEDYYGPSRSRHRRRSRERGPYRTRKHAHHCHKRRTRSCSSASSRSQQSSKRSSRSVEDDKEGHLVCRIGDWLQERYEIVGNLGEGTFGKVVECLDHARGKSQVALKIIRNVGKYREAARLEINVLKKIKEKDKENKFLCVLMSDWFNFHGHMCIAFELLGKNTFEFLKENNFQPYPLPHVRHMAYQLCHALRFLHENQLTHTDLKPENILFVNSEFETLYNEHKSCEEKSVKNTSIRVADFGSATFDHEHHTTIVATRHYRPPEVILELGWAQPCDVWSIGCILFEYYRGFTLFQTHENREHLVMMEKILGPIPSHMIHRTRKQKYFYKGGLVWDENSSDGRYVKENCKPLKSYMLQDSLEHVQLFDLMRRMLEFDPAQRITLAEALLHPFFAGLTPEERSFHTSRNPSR
Description: This is a non-radioactive assay using fluorescence resonance energy transfer (FRET) between coumarin and fluorescein to detect kinase activity which is represented as a ratio of coumarin emission/fluorescein emission.
The mixture was allowed to incubate with the representative compounds for one hour at room temperature. All reactions were performed in duplicate. Unphosphorylated (“0% Control”) and phosphorylated (“100% control”) forms of Ser/Thr 18 served as control reactions. Additionally, an 11-point dose-response curve of Staurosporine (1 μM top) was run to serve as a positive compound control.
After incubation, Development Reagent A was diluted in Development Buffer then added to the reaction and allowed to further incubate for one hour at room temperature.
Dose-response curves were generated and inhibitory concentration (IC50) values were calculated using non-linear regression curve fit in the Dotmatics' Studies Software (Bishops Stortford, UK).

CLK2 kinase = CLK2 kinase (Homo sapiens, UniProt P49760); test: CLK2 kinase activity assay (Z-lyte FRET); assay type: biochemical; settings: Z-lyte Ser/Thr 6 peptide, 60 μM ATP, 1 h at room temperature;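 further: FRET read-out as coumarin to fluorescein emission ratio, unphosphorylated peptide as 0% and phosphorylated peptide as 100% controls, duplicate reactions, non-linear regression fit of dose-response curves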
Sequence of CLK2 kinase (P49760 whole entry): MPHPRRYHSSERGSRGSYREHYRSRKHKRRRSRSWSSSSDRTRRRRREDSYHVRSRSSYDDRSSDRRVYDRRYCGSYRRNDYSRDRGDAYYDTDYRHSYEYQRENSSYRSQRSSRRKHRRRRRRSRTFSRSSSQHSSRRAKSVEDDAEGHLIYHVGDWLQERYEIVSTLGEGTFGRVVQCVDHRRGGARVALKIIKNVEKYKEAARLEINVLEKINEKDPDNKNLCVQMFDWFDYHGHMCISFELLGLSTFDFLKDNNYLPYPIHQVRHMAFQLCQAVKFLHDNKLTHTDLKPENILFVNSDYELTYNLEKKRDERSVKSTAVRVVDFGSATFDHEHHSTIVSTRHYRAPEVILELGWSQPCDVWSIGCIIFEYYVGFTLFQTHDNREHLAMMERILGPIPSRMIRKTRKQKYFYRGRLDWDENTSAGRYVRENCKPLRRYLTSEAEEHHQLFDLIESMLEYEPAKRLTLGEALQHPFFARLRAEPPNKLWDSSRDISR

[3] = system: Wnt pathway activity (SW480 colon carcinoma cells stably expressing the Sp5-Luc reporter); test: Wnt pathway activity screening assay (Sp5-Luc reporter gene assay); settings: Homo sapiens
[4] = SW480, Table 4, SW480 cells stably expressing Sp5-Luc reporter, 10-point dose-response from 10 μM, 36 to 48 hours

CC(C)Oc1cncc(C(=O)Nc2c[nH]nc2C(=O)Nc2ccc(OC3CCN(C)CC3)nc2)c1 [compound 10]
EC50 [1]: 2700 nM | Emax [1]: 140% | EC50 [2]: 1.5 nM | Emax [2]: 46.9% | EC50 (CLK3 kinase): 1780 nM | EC50 (CLK2 kinase): 6 nM | EC50 [3, 4]: 90.3 nM

O=C(Nc1c[nH]nc1C(=O)Nc1ccc(N2CCC(F)(F)C2)nc1)c1cncc(OC2CCNCC2)c1 [compound 12]
Emax [1]: 75.2% | EC50 [2]: 280 nM | Emax [2]: 88.7% | EC50 (CLK3 kinase): 6020 nM | EC50 (CLK2 kinase): 6 nM | EC50 [3, 4]: 2220 nM

O=C(Nc1c[nH]nc1C(=O)Nc1cncc(-c2cccc(F)c2)c1)c1cncc(OC2CCNCC2)c1 [compound 14]
Emax [1]: 89.5% | EC50 [2]: 339 nM | Emax [2]: 71.9% | EC50 (CLK3 kinase): 4300 nM | EC50 (CLK2 kinase): 10 nM | EC50 [3, 4]: 1600 nM

O=C(Nc1ccc(CN2CCCC2)cc1)c1n[nH]cc1/C=C/c1cccnc1 [compound 17]
EC50 [1]: 900 nM | Emax [1]: 194% | EC50 [2]: 3.7 nM | Emax [2]: 64.7% | EC50 (CLK3 kinase): 2670 nM | EC50 (CLK2 kinase): 17 nM | EC50 [3, 4]: 988 nM

Fc1ccc(-c2nnc(-c3n[nH]cc3/C=C/c3cccnc3)o2)cc1 [compound 23]
Emax [1]: 23.4% | EC50 [2]: ≥ 3000 nM | Emax [2]: 51.7% | EC50 (CLK3 kinase): 627 nM | EC50 (CLK2 kinase): 27 nM | EC50 [3, 4]: 1510 nM

CN1CCN(c2nccc3[nH]c(-c4n[nH]cc4/C=C/c4cncc(F)c4)nc23)CC1 [compound 25]
Emax [1]: 39% | EC50 [2]: ≥ 3000 nM | Emax [2]: 91.9% | EC50 (CLK3 kinase): 326 nM | EC50 (CLK2 kinase): 1 nM | EC50 [3, 4]: 325 nM

Fc1cccc(-c2cccc3[nH]c(-c4n[nH]cc4/C=C/c4cncc(CN5CCCC5)c4)nc23)c1 [compound 26]
EC50 [1]: 2700 nM | Emax [1]: 81.7% | EC50 [2]: 1.4 nM | Emax [2]: 64.6% | EC50 (CLK3 kinase): 492 nM | EC50 (CLK2 kinase): 1 nM | EC50 [3, 4]: 82.1 nM

CC(C)OCCCNC(=O)c1n[nH]c2ccc(-c3cccnc3)cc12 [compound 58]
Emax [1]: 92.5% | EC50 [2]: 10.8 nM | Emax [2]: 61.1% | EC50 (CLK3 kinase): 9840 nM | EC50 (CLK2 kinase): 10 nM | EC50 [3, 4]: 464 nM

CC(C)NC(=O)c1n[nH]c2ccc(-c3cncc(CN4CCC(F)(F)CC4)c3)cc12 [compound 75]
EC50 [1]: 2700 nM | Emax [1]: 104% | EC50 [2]: 8 nM | Emax [2]: 95.1% | EC50 (CLK3 kinase): 4020 nM | EC50 (CLK2 kinase): 13 nM | EC50 [3, 4]: 47.1 nM

O=C(Nc1cccnc1)c1n[nH]c2ccc(-c3cncc(CN4CC5CC(C4)O5)c3)cc12 [compound 101]
EC50 [1]: 900 nM | Emax [1]: 121% | EC50 [2]: ≥ 3000 nM | Emax [2]: 45.7% | EC50 (CLK3 kinase): 44 nM | EC50 (CLK2 kinase): 1 nM | EC50 ([3]; SW480): 67 nM

CC(C)Oc1ccc(NC(=O)c2n[nH]c3ccc(-c4cncc(CN5CC6CC(C5)O6)c4)cc23)cn1 [compound 102]
EC50 [1]: 30 nM | Emax [1]: 75.7% | EC50 [2]: 0.2 nM | Emax [2]: 26.3% | EC50 (CLK3 kinase): 88 nM | EC50 (CLK2 kinase): 2 nM | EC50 ([3]; SW480): 61 nM

CN1CCC(n2cc(NC(=O)c3n[nH]c4ccc(-c5cnn(C)c5)cc34)cn2)CC1 [compound 106]
Emax [1]: 23.6% | EC50 [2]: 818 nM | Emax [2]: 100% | EC50 (CLK3 kinase): 55 nM | EC50 (CLK2 kinase): 1 nM | EC50 [3, 4]: 79 nM

Cn1cc(-c2cc3c(C(=O)Nc4ccc(CN5CCCC5)cc4)n[nH]c3cc2F)cn1 [compound 107]
Emax [1]: 27.4% | EC50 [2]: ≥ 3000 nM | Emax [2]: 22.9% | EC50 (CLK3 kinase): 90 nM | EC50 (CLK2 kinase): 1 nM | EC50 [3, 4]: 242 nM

CN(C)C(=O)Nc1cncc(-c2cnc3[nH]nc(-c4nc5c(-c6cccc(F)c6)cncc5[nH]4)c3c2)c1 [compound 130]
Emax [1]: 68.1% | EC50 [2]: 40.6 nM | Emax [2]: 60.5% | EC50 (CLK3 kinase): 18 nM | EC50 (CLK2 kinase): 3 nM | EC50 [3, 4]: 10 nM

CC(C)C(=O)Nc1cncc(-c2ccc3[nH]nc(-c4nc5c(-c6ccccc6F)cncc5[nH]4)c3c2)c1 [compound 173]
EC50 [1]: 30 nM | Emax [1]: 102% | EC50 [2]: ≥ 3000 nM | Emax [2]: 90.2% | EC50 (CLK3 kinase): 24 nM | EC50 (CLK2 kinase): 4 nM | EC50 [3, 4]: 4 nM

CC(C)CC(=O)Nc1cncc(-c2ccc3[nH]nc(-c4nc5c(-c6cccnc6)cncc5[nH]4)c3c2)c1 [compound 189]
EC50 [1]: 100 nM | Emax [1]: 198% | EC50 [2]: 111 nM | Emax [2]: 100% | EC50 (CLK3 kinase): 26 nM | EC50 (CLK2 kinase): 8 nM | EC50 [3, 4]: 12 nM

CCCC(=O)Nc1cncc(-c2ccc3[nH]nc(-c4nc5c(N6CCCCC6)cncc5[nH]4)c3c2)c1 [compound 208]
Emax [1]: 77.3% | EC50 [2]: 20.5 nM | Emax [2]: 39% | EC50 (CLK3 kinase): 58 nM | EC50 (CLK2 kinase): 4 nM | EC50 [3, 4]: 42 nM

CN1CCN(c2nccc3[nH]c(-c4n[nH]c5cc(F)c(-c6cnn(C)c6)cc45)nc23)CC1 [compound 219]
EC50 [1]: 30 nM | Emax [1]: 113% | EC50 [2]: 35.5 nM | Emax [2]: 87.3% | EC50 (CLK3 kinase): 26 nM | EC50 (CLK2 kinase): 1 nM | EC50 [3, 4]: 85.7 nM

O=C(Nc1cc2cc(-c3cncc(CN4CCC(O)CC4)c3)ccc2cn1)c1ccc(F)cc1 [compound 597]
EC50 [2]: 2.9 nM | Emax [2]: 3.7% | EC50 (CLK3 kinase): 94 nM | EC50 (CLK2 kinase): 9 nM | EC50 [3, 4]: 382 nM

CC(C)Nc1cncc(-c2ccc3cnc(NC(=O)c4cccc(C5CCN(C)CC5)c4)cc3c2)n1 [compound 599]
EC50 [2]: ≥ 3000 nM | Emax [2]: 66.4% | EC50 (CLK3 kinase): 11 nM | EC50 (CLK2 kinase): 2 nM | EC50 [3, 4]: 132 nM

O=C(Nc1cc2cc(-c3cncc(NC4CCNCC4)n3)ccc2cn1)C1CCCCC1 [compound 601]
EC50 [2]: ≥ 3000 nM | Emax [2]: 91.6% | EC50 (CLK3 kinase): 59 nM | EC50 (CLK2 kinase): 2 nM | EC50 [3, 4]: 319 nM

O=C(Nc1cc2cc(-c3cncc(NCC4(F)CNC4)n3)ccc2cn1)C1CC1 [compound 602]
EC50 [2]: 897 nM | Emax [2]: 99.5% | EC50 (CLK3 kinase): 18 nM | EC50 (CLK2 kinase): 2 nM | EC50 [3, 4]: 119 nM

CN1CCC(n2cc(C(=O)Nc3cc4cc(-c5cncc6[nH]ccc56)ccc4cn3)cn2)CC1 [compound 604]
EC50 [2]: 40.1 nM | Emax [2]: 57.4% | EC50 (CLK3 kinase): 7 nM | EC50 (CLK2 kinase): 2 nM | EC50 [3, 4]: 13.3 nM

CN1CCC(n2cc(C(=O)Nc3cc4cc(-c5cnc6cc[nH]c6c5)ccc4cn3)cn2)CC1 [compound 605]
EC50 [2]: ≥ 3000 nM | Emax [2]: 59.9% | EC50 (CLK3 kinase): 9 nM | EC50 (CLK2 kinase): 2 nM | EC50 [3, 4]: 26.8 nM

CN1CCN(c2cc(C(=O)Nc3cc4nc(-c5cnn(C)c5)ccc4cn3)ccn2)CC1 [compound 606]
EC50 [2]: ≥ 3000 nM | Emax [2]: 76.1% | EC50 (CLK3 kinase): 60 nM | EC50 (CLK2 kinase): 4 nM | EC50 [3, 4]: 102 nM

CN1CCN(c2cc(C(=O)Nc3ncc4ccc(-c5cnn(C)c5)cc4n3)ccn2)CC1 [compound 607]
EC50 [2]: 417 nM | Emax [2]: 79.7% | EC50 (CLK3 kinase): 135 nM | EC50 (CLK2 kinase): 6 nM | EC50 [3, 4]: 468 nM

Cn1cc(-c2ccc3cnc(NC(=O)c4ccc5nccnc5c4)cc3n2)cn1 [compound 608]
EC50 [2]: ≥ 3000 nM | Emax [2]: 18.3% | EC50 (CLK3 kinase): 141 nM | EC50 (CLK2 kinase): 8 nM | EC50 [3, 4]: 447 nM

CC(C)OC(=O)N1CCC(n2cc(C(=O)Nc3cc4cc(-c5cnn(C)c5)ncc4cn3)cn2)CC1 [compound 609]
EC50 [2]: 154 nM | Emax [2]: 50.2% | EC50 (CLK3 kinase): 61 nM | EC50 (CLK2 kinase): 6 nM | EC50 [3, 4]: 824 nM

CN1CCC2(CC1)CN(c1cc(C(=O)Nc3cc4cc(-c5cnn(C)c5CN5CCCCC5)cnc4cn3)ccn1)C2 [compound 610]
EC50 [2]: ≥ 3000 nM | Emax [2]: 30.4% | EC50 (CLK3 kinase): 31 nM | EC50 (CLK2 kinase): 9 nM | EC50 [3, 4]: 607 nM

Cc1ncc(C(=O)Nc2cc3nc(-c4cnc(C)n4C)ccc3cn2)s1 [compound 611]
EC50 [2]: 8.7 nM | Emax [2]: 68.3% | EC50 (CLK3 kinase): 31 nM | EC50 (CLK2 kinase): 3 nM | EC50 [3, 4]: 107 nM

CN1CC=C(c2cc(C(=O)Nc3cc4cc(-c5cncc(NC(C)(C)C)n5)cnc4cn3)ccn2)CC1 [compound 612]
EC50 [2]: ≥ 3000 nM | Emax [2]: 38.6% | EC50 (CLK3 kinase): 12 nM | EC50 (CLK2 kinase): 5 nM | EC50 [3, 4]: 357 nM

O=C(Nc1cc2cc(-c3cncc(NC4CCNCC4)n3)ncc2cn1)C1CCOCC1 [compound 613]
EC50 [2]: 46.6 nM | Emax [2]: 51.4% | EC50 (CLK3 kinase): 133 nM | EC50 (CLK2 kinase): 7 nM | EC50 [3, 4]: 3640 nM

CC(C)n1cc(C(=O)Nc2cc3cc(-c4cncc(NC5CCN(C)CC5)n4)ncc3cn2)cn1 [compound 614]
EC50 [2]: ≥ 3000 nM | Emax [2]: 41.1% | EC50 (CLK3 kinase): 97 nM | EC50 (CLK2 kinase): 7 nM | EC50 [3, 4]: 164 nM

CN1CCC(n2cc(C(=O)Nc3ncc4ccc(-c5cncc6[nH]ccc56)cc4n3)cn2)CC1 [compound 616]
EC50 [2]: ≥ 3000 nM | Emax [2]: 48.3% | EC50 (CLK3 kinase): 19 nM | EC50 (CLK2 kinase): 6 nM | EC50 [3, 4]: 1400 nM
